Experimental data reported in patent US9168329B2, “Beta-peptides with antifungal activity” (Wisconsin Alumni Research Foundation, priority 2006, dated 2015).

Legend:
[1] = tested on: Candida albicans biofilms (ATCC 90028, ATCC 24433, SC5314); test: Biofilm antifungal susceptibility testing (pre-formed biofilms, XTT); assay type: cell-based
Description: The susceptibility of Candida albicans biofilms to β-peptide treatment was evaluated using procedures based on the method described by Ramage and Lopez-Ribot. (Ramage, G.; Lopez-Ribot, J. L. Methods Mol. Med. 2005, 118, 71-79). ATCC 90028, ATCC 24433, and SC5314 were grown in liquid yeast peptone dextrose (YPD) medium overnight at 30° C. The cells were washed two times with phosphate-buffered saline (PBS, pH 7.2) and resuspended in RPMI 1640 (with L-glutamine and without sodium bicarbonate, Invitrogen) buffered with 0.145 mol/L 3-(N-morpholino) propanesulfonic acid (MOPS). After adjusting the cell suspension to about 1×10^6 cells/mL in RPMI 1640, 100 μL of the cell suspension was added to selected wells of flat-bottom 96-well plates (Falcon), leaving the last column of wells empty for background controls. Plates were covered and incubated at 37° C. for 48 hours to allow biofilms to form.
After formation, biofilms were washed three times with 200 μL of PBS per well to remove nonadherent cells. Twofold serial dilutions of β-peptide in RPMI 1640 were made, and 100 μL was added to the biofilms in the first 10 columns of the 96-well plates. RPMI 1640 without antifungal (100 μL) was added to the wells in column 11 to serve as a positive growth control. Plates were covered and incubated at 37° C. for an additional 48 hours and then washed as before.
A solution of 0.5 g/L of 2,3-bis(2-methoxy-4-nitro-5-sulfo-phenyl)-2H-tetrazolium-5-carboxanilide (XTT, Sigma) was prepared, and 10 mM menadione (Sigma) in acetone was added to give a final menadione concentration of 1 μM. The XTT solution (100 μL) was added to each well containing a biofilm and to the empty column of wells. The plates were incubated for 1.5 hours at 37° C. to allow the C. albicans cells to reduce the XTT. Following incubation, 75 μL of XTT solution was removed from each well and put into a new 96-well plate to measure the absorbance at 490 nm. The reduction of growth for each concentration of β-peptide was calculated from
[formula] where A490^peptide is the average absorbance for wells containing a specified concentration of a β-peptide, A490^no drug is the average absorbance for wells with biofilms not treated with antifungal, and A490^XTT is the average absorbance for wells containing only XTT. At least three replicates were included for each combination of β-peptide and C. albicans strains. Assay for Biofilm Formation in the Presence of β-Peptide

[2] = tested on: Candida albicans (SC5314, ATCC 24433, ATCC 90028); assay type: cell-based
Description: Minimum inhibitory concentration assay. Minimum inhibitory concentrations (MIC) for the β-peptides were determined using the broth microdilution assay described by the Committee for Clinical and Laboratory Standards (formerly known as the National Committee for Clinical Laboratory Standards) (National Committee for Clinical Laboratory Standards Reference method for broth dilution antifungal susceptibility testing of yeasts: approved standard—second edition; NCCLS document M27-A2; NCCLS: Wayne, Pa., 2002). Three strains of Candida albicans were used: SC5314, ATCC 24433, and ATCC 90028. Cells were grown for 24 hours on Sabouraud dextrose agar at 30° C. After 24 hours of growth, the cells were suspended in 0.145 M saline, and the concentration was adjusted to between 1×10^6 cells/mL and 5×10^6 cells/mL in saline. The working suspension was obtained by diluting the suspension 1:1000 in RPMI 1640 (with L-glutamine and without sodium bicarbonate, Invitrogen) buffered with 0.145 mol/L 3-(N-morpholino) propanesulfonic acid (MOPS).
Twofold serial dilutions of stock solutions of α- or β-peptides or amphotericin B (Calbiochem, solubilized in dimethyl sulfoxide) were made in RPMI 1640, and 100 μL aliquots were put into 96-well plates (Falcon). An equal volume of the cell suspension was added to the wells for a total volume of 200 μL. Growth controls and sterility controls were included.
Plates were incubated at 35° C. for 48 h and then visually inspected for fungal growth. […] Experiments were performed in duplicate and repeated on at least two different days.

[3] = tested on: human red blood cells (hRBC); test: Hemolysis assay; assay type: cell-based
Description: Hemolysis assay. The hemolysis assay was performed using human red blood cells (hRBC) as described previously (Raguse, et al. J. Am. Chem. Soc. 2002, 124, 12774-12785; Porter, et al. J. Am. Chem. Soc. 2005, 127, 11516-11529). The hRBC were washed three times in TRIS-buffered saline (TBS; 10 mM TRIS, 150 mM NaCl, pH 7.2) and then diluted to a concentration of 1% (v/v) in TBS. The hRBC suspension (80 μL) was added to twofold dilutions of peptides in TBS (20 μL) in a 96-well plate (Falcon). Wells containing hRBC treated with 20 μL TBS provided a negative control, and wells with high concentrations of the peptide melittin (Sigma) served as a positive control. After incubating at 37° C. for 1 h, plates were centrifuged, and 50 μL of the supernatant was diluted with 50 μL of water in a fresh 96-well plate. The absorbance of the diluted supernatant was measured at 405 nm, and the percent hemolysis for each well was calculated from
[formula] where A405^peptide is the absorbance for the supernatant of hRBC treated with peptide, A405^buffer is the absorbance for the supernatant of hRBC in TBS, and A405^completlysis is the average absorbance for the supernatant of cells treated with melittin at concentrations of 50-400 μg/mL. Experiments were performed in duplicate on at least two different days. Biofilm Antifungal Susceptibility Testing

[4] = tested on: C. albicans strain SC5314; test: Assay for biofilm formation in the presence of β-peptide; assay type: cell-based, Candida albicans
Description: The ability of Candida albicans to form biofilms in the presence of β-peptide was tested using a procedure modified from the protocol for testing biofilms pre-formed in 96-well plates. C. albicans strain SC5314 was grown in liquid yeast peptone dextrose (YPD) medium overnight at 30° C., and the cells were washed twice with PBS (pH 7.2). Cells were resuspended in RPMI 1640, and the cell concentration was adjusted to about 2×10^6 cells/mL in RPMI 1640.
Twofold serial dilutions of β-peptide and amphotericin B were prepared in RPMI 1640, and 50 μL of each dilution was added to wells of a 96-well plate. At least three replicates were included. β-Peptide-free control wells were also included. An equal volume of the cell suspension was added to give a final cell concentration of 1×10^6 cells/mL. Plates were covered and placed in a 37° C. incubator for 48 hours.
After allowing biofilms to form for 48 hours, nonadherent cells were removed from the wells by washing the biofilms three times with 200 μL of PBS per well. A 0.5 g/L XTT solution with 1 μM menadione was prepared, and 100 μL was added to each biofilm formation well and to empty wells for XTT background measurements. […] The absorbance of the solution in each well was measured at 490 nm, and the reduction of growth for biofilms grown in the presence of β-peptide and amphotericin B compared to biofilms grown in medium only was calculated from […]

C. albicans = conditions: cited from earlier work
[5] = tested on: Candida albicans (SC5314, ATCC 24433, ATCC 90028); conditions: from NCCLS document M27-A2; cited from earlier work
[6] = pH 7, physiological ionic strength

For `CC(C)[C@@H](CC(=O)N[C@@H](CCCCN)CC(=O)N[C@H]1CCCC[C@@H]1C(=O)N[C@H](CC(=O)N[C@@H](CCCCN)CC(=O)N[C@H]1CCCC[C@@H]1C(=O)N[C@H](CC(=O)N[C@@H](CCCCN)CC(N)=O)C(C)C)C(C)C)NC(=O)[C@H]1CCCC[C@@H]1NC(=O)C[C@@H](N)Cc1ccc(O)cc1` [β-peptide 1, β^3Tyr-(ACHC-β^3Val-β^3Lys)3], the “concentration killing (nearly all cells in) pre-formed biofilms” value ([1]; pre-formed biofilms) was 256 µg/mL, the “Average MIC” value ([2]; average over three C. albicans strains, pH 7, physiological ionic strength, Table 1 prints no unit) was 16 µg/mL and the “antifungal activity in the planktonic NCCLS assay (in words)” value (“antifungal activity” below) [2, 6] was “showed activity in the planktonic assay”. For the same compound, the “% Hemolysis at MIC” value [3] was 21%, the “biofilm-preventing concentration relative to planktonic MIC” value [4] was “two times its planktonic MIC” and the “concentration completely preventing biofilm formation” value [4] was 32 µg/mL.
For `CCCCCCCCCCCCCCC(=O)N[C@H](CC(=O)N[C@H]1CCCC[C@@H]1C(=O)N[C@H]1CCCC[C@@H]1C(=O)N[C@@H](CCCCN)CC(=O)N[C@H]1CCCC[C@@H]1C(=O)N[C@H]1CCCC[C@@H]1C(=O)N[C@@H](CCCCN)CC(=O)N[C@H]1CCCC[C@@H]1C(=O)N[C@H]1CCCC[C@@H]1C(=O)N[C@@H](CCCCN)CC(N)=O)Cc1ccc(O)cc1` [C15-β^3Tyr-(ACHC-ACHC-β^3Lys)3], the “reduction in biofilm growth” value ([1]; at the highest concentration tested) was “barely surpassed this mark”, the “activity in the biofilm killing assay (in words)” value ([1]; pre-formed biofilms) was “low activity” and the “antifungal activity” value [2, 6] was “lacking activity in the planktonic assay”. It also gave an MIC ([2]; planktonic, strain not stated) of over 128 µg/mL.
In the case of β^3Tyr-ACHC-(ACHC-β^3Lys)3-ACHC-ACHC, the “activity in the biofilm killing assay (in words)” value ([1]; pre-formed biofilms) is reported as “low activity” and the “antifungal activity” value [2, 6] is reported as “lacking activity in the planktonic assay”.
In the case of β^3Tyr-(ACHC-β^3Val-β^3Lys)2, the “activity in the biofilm killing assay (in words)” value ([1]; pre-formed biofilms) is reported as “low activity” and the “antifungal activity” value [2, 6] is reported as “lacking activity in the planktonic assay”.
In the case of magainin 2, the “concentration reducing C. albicans growth by 50%” value (C. albicans; pH 7, low ionic strength solutions) is listed as “below 1 μg/ml” and the “activity against C. albicans (in words)” value (C. albicans; pH 7, physiologic ionic strength) is listed as “inactive”.
For `C[C@@H]1[C@H](O)[C@@H](C)/C=C/C=C/C=C/C=C/C=C/C=C/C=C/[C@H](O[C@@H]2O[C@H](C)[C@@H](O)[C@H](N)[C@@H]2O)C[C@@H]2O[C@](O)(C[C@@H](O)C[C@@H](O)[C@H](O)CC[C@@H](O)C[C@@H](O)CC(=O)O[C@H]1C)C[C@H](O)[C@H]2C(=O)O` [Amphotericin B], the MIC range [5] is listed as 0.3 to 2.2 µM.
For `OC(Cn1cncn1)(Cn1cncn1)c1ccc(F)cc1F` [fluconazole], the MIC range [5] is listed as 0.8 to 3.3 µM.
